# Assay: log P (neutral), HPLC on reversed-phase column (C 18), LC-MS neutral range
# Assay type: physicochemical
# Details: for chromatographic logP: reversed-phase HPLC column (C 18), pH 7.8, HPLC reversed-phase C 18, 55° C.
# Description: Temperature: 55° C. […] Called log P (neutral) in the table.
# [1] = pH 7.8, ammonium hydrogencarbonate/acetonitrile
# [2] = HPLC reversed-phase C 18, 55° C., pH 7.8, ammonium hydrogencarbonate/acetonitrile
SMILES,chromatographic logP [1],other results
"CC(=O)c1nc(F)ccc1F [1-(3,6-Difluoropyridin-2-yl)ethanone]",1.24,
"O=C(CBr)c1nc(F)ccc1F [2-Bromo-1-(3,6-difluoropyridin-2-yl)ethanone]",1.93,log P (neutral) [2]: 1.95
"CON(C)C(=O)c1nc(F)ccc1F [3,6-Difluoro-N-methoxy-N-methylpyridine-2-carboxamide]",1.05,
CCSc1ccc(Br)nc1C(=O)O [6-Bromo-3-(ethylsulphanyl)pyridine-2-carboxylic acid],1.79,
"CCS(=O)(=O)c1ccc(-n2cc(Cl)cn2)nc1-c1cn2cc(C(F)(F)F)ncc2n1 [Example I-18, 2-[6-(4-Chloro-1H-pyrazol-1-yl)-3-(ethylsulphonyl)pyridin-2-yl]-6-(trifluoromethyl)imidazo[1,2-a]pyrazine]",3.44,
"CCS(=O)(=O)c1ccc(NC(C)=O)nc1-c1nc2cc(C(F)(F)F)cnc2o1 [Example I-19, N-{5-(Ethylsulphonyl)-6-[6-(trifluoromethyl) [1,3]oxazolo[5,4-b]pyridin-2-yl]pyridin-2-yl}acetamide]",2.44,
CCS(=O)(=O)c1ccc(NC2COC2)nc1-c1nc2cc(C(F)(F)F)cnc2n1C [Example I-26],,log P (neutral) [2]: 2.27
CCS(=O)(=O)c1ccc(-n2nccn2)nc1-c1cn2cnc(C(F)(F)F)cc2n1 [Example I-27],,log P (neutral) [2]: 2.28
CCS(=O)(=O)c1ccc(-n2cncn2)nc1-c1cn2cnc(C(F)(F)F)cc2n1 [Example I-28],,log P (neutral) [2]: 2.19
"CCS(=O)(=O)c1ccc(C(=O)NC)nc1-c1nc2cc(C(F)(F)F)cnc2n1C [Example I-34, 5-(Ethylsulphonyl)-N-methyl-6-[3-methyl-6-(trifluoromethyl)-3H-imidazo[4,5-b]pyridin-2-yl]pyridine-2-carboxamide]",2.36,
"CCS(=O)(=O)c1ccc(-n2cc(Cl)cn2)nc1-c1nc2cc(C(F)(F)F)nnc2n1C [Example I-35, 6-[6-(4-Chloropyrazol-1-yl)-3-ethylsulphonyl-2-pyridyl]-7-methyl-3-(trifluoromethyl)imidazo[4,5-c]pyridazine]",3.38,
"CCS(=O)(=O)c1ccc(C(=O)NC)nc1-c1nc2cc(C(F)(F)F)nnc2n1C [Example I-39, 5-(Ethylsulphonyl)-N-methyl-6-[7-methyl-3-(trifluoromethyl)-7H-imidazo[4,5-c]pyridazin-6-yl]pyridine-2-carboxamide]",1.96,
CCS(=O)(=O)c1ccc(NC(=O)C(F)(F)F)nc1-c1nc2cc(C(F)(F)F)cnc2o1 [Example I-40],,log P (neutral) [2]: 3.09
CCS(=O)(=O)c1ccc(-n2cc(Cl)cn2)nc1-c1nc2cc(C(F)(F)F)cnc2o1 [Example I-41],,log P (neutral) [2]: 4.01
CCS(=O)(=O)c1ccc(-n2ccc(C(F)(F)F)n2)nc1-c1nc2cc(C(F)(F)F)cnc2o1 [Example I-42],,log P (neutral) [2]: 4.17
CCS(=O)(=O)c1ccc(-n2cncn2)nc1-c1nc2cc(C(F)(F)F)nnc2n1C [Example I-43],,log P (neutral) [2]: 2.08
CCS(=O)(=O)c1ccc(-n2nccn2)nc1-c1nc2cc(C(F)(F)F)nnc2n1C [Example I-44],,log P (neutral) [2]: 2.21
CCS(=O)(=O)c1ccc(-n2ccnc2)nc1-c1cn2cnc(C(F)(F)F)cc2n1 [Example I-45],,log P (neutral) (pH 7.8): 2.07

SMILES,chromatographic logP [1],other results
CCS(=O)(=O)c1ccc(-n2cccn2)nc1-c1cn2cnc(C(F)(F)F)cc2n1 [Example I-46],,log P (neutral) [2]: 2.58
"Cn1c(-c2nc(F)ccc2F)nc2cc(C(F)(F)F)ccc21 [IX-1, 2-(3,6-Difluoropyridin-2-yl)-1-methyl-5-(trifluoromethyl)-1H-benzimidazole]",2.83,
"Cn1c(-c2nc(F)ccc2F)nc2cc(C(F)(F)F)cnc21 [IX-2, 2-(3,6-Difluoropyridin-2-yl)-3-methyl-6-(trifluoromethyl)-3H-imidazo[4,5-b]pyridine]",2.72,
"Cn1c(-c2nc(Cl)ccc2Cl)nc2cc3c(cc21)OC(F)(F)O3 [IX-3, 6-(3,6-Dichloro-2-pyridyl)-2,2-difluoro-7-methyl-[1,3]dioxolo[4,5-f]benzimidazole]",3.22,
"FC1(F)Oc2cc3nc(-c4nc(Cl)ccc4Cl)[nH]c3cc2O1 [IX-4, 6-(3,6-Dichloro-2-pyridyl)-2,2-difluoro-5H-[1,3]dioxolo[4,5-f]benzimidazole]",3.2,
"Fc1ccc(F)c(-c2cn3cnc(C(F)(F)F)cc3n2)n1 [IX-5, 2-(3,6-Difluoropyridin-2-yl)-7-(trifluoromethyl)imidazo[1,2-c]pyrimidine]",2.02,
"Cn1c(-c2nc(Cl)ccc2Cl)nc2cc(C(F)(F)F)nnc21 [IX-7, 6-(3,6-Dichloro-2-pyridyl)-7-methyl-3-(trifluoromethyl)imidazo[4,5-c]pyridazine]",2.65,
"CCSc1ccc(Br)nc1C(=O)Nc1cc(C(F)(F)F)cnc1Cl [LXIX-1, 6-Bromo-N-[2-chloro-5-(trifluoromethyl)pyridin-3-yl]-3-(ethylsulphanyl)pyridine-2-carboxamide]",5.27,
"CCSc1ccc(SCC)c(-c2cn3cc(C(F)(F)F)ncc3n2)n1 [LXXI-1, 2-[3,6-Bis(ethylsulphanyl)pyridin-2-yl]-6-(trifluoromethyl)imidazo[1,2-a]pyrazine]",4,
"CCS(=O)(=O)c1ccc(S(=O)(=O)CC)c(-c2cn3cnc(C(F)(F)F)cc3n2)n1 [LXXIII-1, 2-[3,6-Bis(ethylsulphonyl)pyridin-2-yl]-7-(trifluoromethyl)imidazo[1,2-c]pyrimidine]",2.28,
"CCS(=O)(=O)c1ccc(S(=O)(=O)CC)c(-c2cn3cc(C(F)(F)F)ncc3n2)n1 [LXXIII-2, 2-[3,6-Bis(ethylsulphonyl)pyridin-2-yl]-6-(trifluoromethyl)imidazo[1,2-a]pyrazine]",2.23,
"CCSc1ccc(C(=O)OC)nc1-c1nc2cc(C(F)(F)F)cnc2n1C [LXXIX-1, Methyl 5-(ethylsulphanyl)-6-[3-methyl-6-(trifluoromethyl)-3H-imidazo[4,5-b]pyridin-2-yl]pyridine-2-carboxylate]",3.25,
"COC(=O)c1ccc(Cl)c(-c2nc3cc(C(F)(F)F)cnc3n2C)n1 [LXXVIII-1, Methyl 5-chloro-6-[3-methyl-6-(trifluoromethyl)-3H-imidazo[4,5-b]pyridin-2-yl]pyridine-2-carboxylate]",2.7,
"CCS(=O)(=O)c1ccc(C(=O)OC)nc1-c1nc2cc(C(F)(F)F)cnc2n1C [LXXX-1, Methyl 5-(ethylsulphonyl)-6-[3-methyl-6-(trifluoromethyl)-3H-imidazo[4,5-b]pyridin-2-yl]pyridine-2-carboxylate]",2.61,
"CCS(=O)(=O)c1ccc(C(=O)OC)nc1-c1nc2cc(C(F)(F)F)nnc2n1C [LXXX-2, Methyl 5-(ethylsulphonyl)-6-[7-methyl-3-(trifluoromethyl)-7H-imidazo[4,5-c]pyridazin-6-yl]pyridine-2-carboxylate]",2.19,
"CCSc1ccc(F)nc1-c1nc2cc(C(F)(F)F)ccc2n1C [XI-1, 2-[3-(Ethylsulphanyl)-6-fluoropyridin-2-yl]-1-methyl-5-(trifluoromethyl)-1H-benzimidazole]",3.44,
"CCSc1ccc(F)nc1-c1nc2cc(C(F)(F)F)cnc2n1C [XI-2, 2-[3-(Ethylsulphanyl)-6-fluoropyridin-2-yl]-3-methyl-6-(trifluoromethyl)-3H-imidazo[4,5-b]pyridine]",3.45,

# From US10667517B2, “2-(Het)aryl-substituted fused heterocycle derivatives as pesticides” (BAYER CROPSCIENCE AKTIENGESELLSCHSAFT, priority 2015, dated 2020)
